{"source": "patent US20240277744A1", "about": "“TREATMENT OF CHEMORESISTANT CANCER CELLS” (Cornell University, priority 2023, published 2024)", "key": {"A549 cell line": {"test_system": "A549 cell line", "assay": "Flow cytometry of TRA-1-81+ cells", "format": "cell-based", "procedure": "(§1) Flow cytometry. TRA-1-60 PerCP-efluor710 (eBioscience, 1:50) and TRA-1-81 PE (eBioscience, 1:100) were used. Cells were blocked with 5% FBS plus mouse IgM isotype control antibody (eBioscience, 1:100) at room temperature for 15 min, then stained on ice for 30 min. Stained cells were resuspended in PBS containing 300 nM DAPI and proceeded to analysis or sorting. Cell apoptosis was analyzed with FITC-AnnexinV labeling reagent (BD). Flow cytometry analysis was carried out on BD FACS Calibur with FlowJo 9.8 software. Sorting was performed with FACSVantage SE (Becton Dickinson)."}, "TRA-1-81+ SW1990 cells": {"test_system": "TRA-1-81+ SW1990 cells", "assay": "Flow cytometry of TRA-1-81+ cells", "format": "cell-based", "details": "SW1990; 5 days; GEM 50, 100 or 250 nM; flow cytometry", "procedure": "as §1"}, "SW1990 xenograft tumors [1]": {"test_system": "SW1990 xenograft tumors", "assay": "Luciferase-labeled SW1990 xenograft in nude mice", "format": "in vivo", "procedure": "CYM suppresses TRA-1-60 expression and blocks tumor growth in vivo. Next it was sought to validate the effects of CYM in vivo, using a xenograft model with luciferase-labeled SW1990 cells propagated in nude mice. Tumor-harboring mice were separated into 4 groups and treated with PBS (control), 2 mg/kg CYM, 50 mg/kg GEM, or 2 mg/kg CYM plus 50 mg/kg GEM through intraperitoneal injections twice per week. Luciferase intensity was quantified twice per week and normalized with the value obtained from the starting day. […] Consistent with imaging, of the four groups, mice treated with GEM plus CYM generated xenograft tumors with the smallest size (FIG. 6C) and weight (FIG. 6D).\n(§2) Tissue samples were fixed with 4% paraformaldehyde overnight at 4° C., washed with 70% ethanol and then embedded in paraffin. After De-paraffin and rehydration, antigen retrieval was preceded in hot antigen retrieving buffer with a normal-pressure steamer for 30 min. blocking was proceeded 1 hour at room temperature in PBS containing 1% horse serum. Primary antibody was stained overnight at 4° C. in PBS plus 0.5% Triton X-100 and 5% horse serum. Secondary antibody was incubated at room temperature for 1.5 hours.\nMouse Procedures. To assess in vivo effects of Cymarin (CYM), Luciferase-labelled SW1990 cells were transplanted to nude mice subcutaneously. Each mouse received four injections (5×10^5 cells/site). 12 days later, mice were randomly separated into 4 groups and treated with PBS (control), GEM (50 mg/kg bodyweight), CYM (2 mg/kg bodyweight) or GEM (50 mg/kg bodyweight) plus CYM (2 mg/kg bodyweight) twice weekly via intraperitoneal injection. Image acquisition was performed twice weekly with Xtreme Optical and X-ray small animal imaging system. Luciferin potassium salt (Regis), substrate of luciferase, was applied at 2 mg/25 g bodyweight in 150 μl PBS. Isoflurane (Henry Schein) was used for anesthesia during imaging."}, "SW1990GR cells": {"test_system": "SW1990GR cells", "assay": "Cell viability (DAPI nuclei count, high content imaging)", "format": "cell-based", "details": "GEM-resistant line, read-out: IC50 for GEM (viability)", "procedure": "To establish GR cell lines, cells were first cultured with 10 nM GEM till cell growth became stable. […] Once cell growth became stable in 100 nM GEM, cells were expanded in 100 nM GEM and used in assays.\n(§3) Cell viability, colony formation, sphere formation and growth curve. To quantify viability, cells were plated into 96-well plates (6000/well) one night before treatment. […] After fixation, cell nuclei were stained with DAPI (Invitrogen). Plates were analyzed using MetaXpress High Content Image Acquisition and Analysis System (Molecular Devices)."}, "[2]": {"test_system": "primary human xenograft tumor", "assay": "Patient derived pancreatic adenocarcinoma xenograft in nude mice", "format": "in vivo", "details": "50 mg/kg GEM twice weekly, one month; not in control tumors", "procedure": "To examine whether TRA-1-60 expression correlates with chemotherapy treatment in primary tumors, a human pancreatic adenocarcinoma specimen was freshly collected after surgery, transplanted to nude mice and expanded subcutaneously. Mice carrying the primary human xenograft tumor were separated into two groups: one group was treated with 50 mg/kg GEM twice weekly while the other group received the same volume of PBS as control. After one month, xenograft tumors were stained with TRA-1-60 antibody. TRA-1-60 staining was detected in GEM-treated xenograft tumors but not control xenograft tumors (FIG. 7C, D), confirming that TRA-1-60 expression is positively correlated with chemoresistance.\nas §2"}, "HCT116 cell line": {"test_system": "HCT116 cell line", "assay": "Flow cytometry of TRA-1-81+ cells", "format": "cell-based", "details": "HCT116; flow cytometry", "procedure": "as §1"}, "DU145 cell line": {"test_system": "DU145 cell line", "assay": "Flow cytometry of TRA-1-81+ cells", "format": "cell-based", "details": "DU145; flow cytometry", "procedure": "as §1"}, "HT29 cell line": {"test_system": "HT29 cell line", "assay": "Flow cytometry of TRA-1-81+ cells", "format": "cell-based", "procedure": "as §1"}, "RKO cell line": {"test_system": "RKO cell line", "assay": "Flow cytometry of TRA-1-81+ cells", "format": "cell-based", "procedure": "as §1"}, "SW1990 xenograft tumors [3]": {"test_system": "SW1990 xenograft tumors", "assay": "GEM-resistant SW1990 xenograft passaged in nude mice", "details": "50 mg/kg GEM i.p. twice a week, 3 passages in vivo, vs PBS control", "procedure": "Whether the epitope of TRA-1-60 and TRA-1-81 antibodies also enriches CCCs in vivo, with xenograft tumors in nude mice derived from SW1990 cells implanted subcutaneously, was examined. Mice carrying tumors were randomly separated into two groups: one was treated with 50 mg/kg GEM via intraperitoneal injection twice a week for 4 weeks; the other was treated with the same volume of PBS as control. After 3 passages in vivo (˜6 months), the control and GR xenograft tumors were analyzed with immunofluorescence (FIG. 1K).\nas §2"}, "SW1990 cells": {"test_system": "SW1990 cells", "assay": "Cell viability (DAPI nuclei count, high content imaging)", "format": "cell-based", "details": "Homo sapiens; parental SW1990; read-out: IC50 for GEM (viability)", "procedure": "as §3"}, "TRA-1-60+ SW1990GR cells": {"test_system": "TRA-1-60+ SW1990GR cells", "assay": "High content screen / immunofluorescent staining of TRA-1-60+ cells", "format": "cell-based", "details": "SW1990GR", "procedure": "Immunofluorescent staining. Primary antibodies were TRA-1-60 antibody (BD, 1:200), biotin conjugated TRA-1-60 antibody (eBioscience, 1:200). Secondary antibodies were donkey anti-mouse Alexa-efluor594 (Life technologies, 1:500) or streptavidin conjugated Alexa Fluor® 594 (Life technologies, 1:200).\nCells were fixed with 10% formalin for 20 min at room temperature. After 1 hour blocking in PBS with 5% horse serum and 0.3% triton-X100, primary antibodies were added to cells and incubated overnight at 4° C. Secondary antibody incubation was 1.5 hours at room temperature.\nChemical library screening. The Prestwick library of FDA approved drugs (˜1280 chemicals) plus a collection of drugs in clinical trials was used for the screen on SW1990GR cells.\nFor screening, SW1990GR cells were plated in 384-well plates (5000 cells/well). After overnight incubation, chemicals were added at 1 μM or 10 μM in duplicate. After 5 days of treatment, plates were stained with TRA-1-60 antibody and analyzed with MetaXpress High Content Image Acquisition and Analysis System (Molecular Devices). Wells treated with DMSO were set as control. The reduction was calculated by subtracting the percentage of TRA-1-60^+ cells in the chemical-treated wells from that of control wells. Standard deviation of TRA-1-60^+ percentage in control wells was calculated and 3-fold of this value was taken as threshold to pick up the primary hit."}}, "note": "Where a name gives a salt, the structure may show the parent alone.", "data": [{"smiles": "CCc1c2c(nc3ccc(OC(=O)N4CCC(N5CCCCC5)CC4)cc13)-c1cc3c(c(=O)n1C2)COC(=O)[C@]3(O)CC", "note": "[CPT-11, Irinotecan hydrochloride]", "values": [{"measurement": "TRA-1-81+ cell population after acute drug treatment", "setting": "A549 cell line", "result": "significant enhancement"}, {"measurement": "TRA-1-81+ cell population after acute drug treatment", "setting": "TRA-1-81+ SW1990 cells", "result": "highly enriched"}]}, {"smiles": "Nc1ccn([C@@H]2O[C@H](CO)[C@@H](O)C2(F)F)c(=O)n1", "note": "[GEM, Gemcitabine hydrochloride]", "values": [{"measurement": "tumor growth (luciferase intensity)", "setting": "SW1990 xenograft tumors [1]; 3 weeks, i.p. twice per week, GEM 50 mg/kg, CYM 2 mg/kg", "result": "grew more slowly"}, {"measurement": "percentage of TRA-1-60+ cells in xenograft tumors", "setting": "SW1990 xenograft tumors [1]; GEM-treated tumors without CYM, immunofluorescence", "result": "~27", "unit": "%"}, {"measurement": "IC50", "setting": "SW1990GR cells", "result": "59.4 ± 5.3", "unit": "nM"}, {"measurement": "TRA-1-60 staining in patient derived xenograft tumors", "setting": "[2]", "result": "detected"}, {"measurement": "TRA-1-81+ cell population after acute GEM treatment", "setting": "HCT116 cell line", "result": "significant increase"}, {"measurement": "TRA-1-81+ cell population after acute drug treatment", "setting": "A549 cell line", "result": "significant increase"}, {"measurement": "TRA-1-81+ cell population after acute GEM treatment", "setting": "DU145 cell line", "result": "significant increase"}, {"measurement": "TRA-1-81+ cell population after acute drug treatment", "setting": "TRA-1-81+ SW1990 cells", "result": "significant increase"}, {"measurement": "TRA-1-81+ cell population after acute GEM treatment", "setting": "HT29 cell line", "result": "significant increase"}, {"measurement": "TRA-1-81+ cell population after acute GEM treatment", "setting": "RKO cell line", "result": "significant increase"}, {"measurement": "percentage of TRA-1-60+ cells in GR xenograft tumors", "setting": "SW1990 xenograft tumors [3]", "result": "significantly increased"}, {"measurement": "IC50", "setting": "SW1990 cells", "result": "9.6 ± 3.2", "unit": "nM"}]}, {"smiles": "C[C@@H]1O[C@@H](O[C@H]2C[C@@H](O)[C@]3(CO)[C@H]4[C@H](O)C[C@]5(C)[C@@H](C6=CC(=O)OC6)CC[C@]5(O)[C@@H]4CC[C@]3(O)C2)[C@H](O)[C@H](O)[C@H]1O", "note": "[Ouabain]", "values": [{"measurement": "validation of primary hit", "setting": "TRA-1-60+ SW1990GR cells", "result": "able to be validated"}]}, {"smiles": "Nc1nc2[nH]cc(CCc3ccc(C(=O)N[C@@H](CCC(=O)O)C(=O)O)cc3)c2c(=O)[nH]1", "note": "[PMX, Pemetrexed disodium heptahydrate]", "values": [{"measurement": "TRA-1-81+ cell population after acute drug treatment", "setting": "A549 cell line", "result": "significant enhancement"}, {"measurement": "TRA-1-81+ cell population after acute drug treatment", "setting": "TRA-1-81+ SW1990 cells", "result": "highly enriched"}]}]}
